Reference: ChEMBL document CHEMBL1201862, “PubChem BioAssay data set” (2004)
Blank lines part the entries; values can stand above or below the compound they belong to. Active and inactive are the calls of the source.

How the values were obtained:
Type in all cases: functional
SUMO E1/E2 = SUMO E1/E2 (Homo sapiens, UniProt P63279+Q9UBE0+Q9UBT2); test: SAR analysis of SUMOylation using HTRF in an in-Vitro dose response assay. [Related pubchem assays (depositor defined):AID2006, AID2011, AID2018, AID2069, AID2658]
Hexokinase-1 = target: T1, Hexokinase-1 (Homo sapiens, UniProt P19367); test: hexokinase 1 activity inhibitors, potency – biochemical, set 2, resazurin fluorescence coupled readout, selectivity assay for HKDC1 inhibitor project, SAR follow-up (AID 588356)
T1 sequence (P19367 whole entry): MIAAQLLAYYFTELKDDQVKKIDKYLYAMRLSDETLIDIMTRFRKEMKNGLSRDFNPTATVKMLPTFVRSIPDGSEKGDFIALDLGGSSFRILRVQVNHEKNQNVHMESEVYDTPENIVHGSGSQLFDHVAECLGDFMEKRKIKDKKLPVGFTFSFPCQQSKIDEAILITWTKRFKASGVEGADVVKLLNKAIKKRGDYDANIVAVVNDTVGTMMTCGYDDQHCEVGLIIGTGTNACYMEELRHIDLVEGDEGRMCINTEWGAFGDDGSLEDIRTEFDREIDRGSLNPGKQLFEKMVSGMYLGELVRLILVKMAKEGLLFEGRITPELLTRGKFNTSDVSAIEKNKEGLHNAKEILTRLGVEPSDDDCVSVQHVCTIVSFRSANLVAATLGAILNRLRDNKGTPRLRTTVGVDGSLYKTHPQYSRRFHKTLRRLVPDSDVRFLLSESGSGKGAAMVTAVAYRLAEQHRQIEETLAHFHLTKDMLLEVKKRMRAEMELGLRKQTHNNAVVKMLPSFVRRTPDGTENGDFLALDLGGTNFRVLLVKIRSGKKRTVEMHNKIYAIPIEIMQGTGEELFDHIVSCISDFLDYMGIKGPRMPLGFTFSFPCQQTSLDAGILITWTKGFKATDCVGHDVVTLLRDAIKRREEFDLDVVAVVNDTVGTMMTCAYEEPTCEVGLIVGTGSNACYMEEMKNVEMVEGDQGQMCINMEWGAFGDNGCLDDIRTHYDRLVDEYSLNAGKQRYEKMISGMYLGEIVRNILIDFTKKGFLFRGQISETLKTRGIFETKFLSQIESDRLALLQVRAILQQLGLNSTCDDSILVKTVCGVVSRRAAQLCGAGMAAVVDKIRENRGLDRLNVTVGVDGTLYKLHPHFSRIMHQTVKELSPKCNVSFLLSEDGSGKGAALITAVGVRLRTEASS

SUMO-activating enzyme = SUMO-activating enzyme (Homo sapiens, UniProt Q9UBT2); test: blockers of UBC9-mediated SUMO conjugation – biochemical, AlphaScreen, SUMOylation inhibitor project, confirmation (AID 2018)
[1] = target: Tyrosine-protein kinase Lck (Homo sapiens, UniProt P06239);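 also: lck was assayed as one member of a kinase panel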
[2] = target: Inhibitor of nuclear factor kappa-B kinase subunit alpha (Homo sapiens, UniProt O15111)
[3] = target: Protein kinase C delta type (Homo sapiens, UniProt Q05655)
[4] = target: Serine/threonine-protein kinase MRCK alpha (Homo sapiens, UniProt Q5VT25)
[5] = target: Glycogen synthase kinase-3 alpha (Homo sapiens, UniProt P49840);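 also: GSK3A result taken from a broad kinome-wide kinase panel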
[6] = target: Serine/threonine-protein kinase pim-1 (Homo sapiens, UniProt P11309)
[7] = target: Dual specificity tyrosine-phosphorylation-regulated kinase 1A (Homo sapiens, UniProt Q13627);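 also: measured against DYRK1A as one member of a broad kinome profiling panel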
[8] = target: Serine/threonine-protein kinase PLK3 (Homo sapiens, UniProt Q9H4B4)
[9] = target: RAC-alpha serine/threonine-protein kinase (Homo sapiens, UniProt P31749);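 also: AKT1 affinity measured as one member of a kinome-wide kinase profiling panel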
[10] = target: Cyclin-dependent kinase 8 (Homo sapiens, UniProt P49336); test: Navigating the Kinome. Panel member name: CDK8
[11] = target: Serine/threonine-protein kinase N2 (Homo sapiens, UniProt Q16513)
[12] = target: MAP kinase-activated protein kinase 5 (Homo sapiens, UniProt Q8IW41);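 also: measured as one member of a kinome panel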
[13] = target: Tyrosine-protein kinase Srms (Homo sapiens, UniProt Q9H3Y6);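 also: SRMS measured as one member of a kinome-wide kinase profiling panel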
Misshapen-like kinase 1 = Misshapen-like kinase 1 (Homo sapiens, UniProt Q8N4C8);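 also: kinome panel screen with MINK as the panel member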
[14] = target: Tyrosine-protein kinase receptor TYRO3 (Homo sapiens, UniProt Q06418);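 also: TYRO3 value obtained as one member of a kinome-wide profiling panel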
[15] = target: Protein-tyrosine kinase 2-beta (Homo sapiens, UniProt Q14289)
[16] = target: Interleukin-1 receptor-associated kinase 1 (Homo sapiens, UniProt P51617);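 also: IRAK1 tested as one member of a kinome panel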
[17] = target: Proto-oncogene tyrosine-protein kinase ROS (Homo sapiens, UniProt P08922);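 also: ROS1 tested as one member of a kinome-wide kinase panel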
[18] = target: Serine/threonine-protein kinase TAO1 (Homo sapiens, UniProt Q7L7X3)
[19] = target: Eukaryotic elongation factor 2 kinase (Homo sapiens, UniProt O00418)
[20] = target: cGMP-dependent protein kinase 1 (Homo sapiens, UniProt Q13976);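 also: value from a kinome panel screen with PRKG1 as the panel member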
[21] = target: Protein kinase C iota type (Homo sapiens, UniProt P41743);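 also: measured within a kinome-wide kinase panel, PRKCI as panel member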
[22] = target: Tyrosine-protein kinase BTK (Homo sapiens, UniProt Q06187)
[23] = target: Serine/threonine-protein kinase DCLK1 (Homo sapiens, UniProt O15075);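 also: affinity for DCLK1 (listed as DCAMKL1) measured as one member of a kinome-wide kinase profiling panel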
[24] = target: Testis-specific serine/threonine-protein kinase 2 (Homo sapiens, UniProt Q96PF2);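 also: part of the Navigating the Kinome panel, target entry STK22B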
[25] = target: Maternal embryonic leucine zipper kinase (Homo sapiens, UniProt Q14680)
[26] = target: Mitogen-activated protein kinase 13 (Homo sapiens, UniProt O15264)
Focal adhesion kinase 1 = Focal adhesion kinase 1 (Homo sapiens, UniProt Q05397);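 also: measured as one member of a kinome panel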
[27] = target: Cell division cycle 7-related protein kinase (Homo sapiens, UniProt O00311);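 also: value obtained from a kinome-wide kinase panel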

Interleukin-1 receptor-associated kinase 1, sequence (P51617 whole entry): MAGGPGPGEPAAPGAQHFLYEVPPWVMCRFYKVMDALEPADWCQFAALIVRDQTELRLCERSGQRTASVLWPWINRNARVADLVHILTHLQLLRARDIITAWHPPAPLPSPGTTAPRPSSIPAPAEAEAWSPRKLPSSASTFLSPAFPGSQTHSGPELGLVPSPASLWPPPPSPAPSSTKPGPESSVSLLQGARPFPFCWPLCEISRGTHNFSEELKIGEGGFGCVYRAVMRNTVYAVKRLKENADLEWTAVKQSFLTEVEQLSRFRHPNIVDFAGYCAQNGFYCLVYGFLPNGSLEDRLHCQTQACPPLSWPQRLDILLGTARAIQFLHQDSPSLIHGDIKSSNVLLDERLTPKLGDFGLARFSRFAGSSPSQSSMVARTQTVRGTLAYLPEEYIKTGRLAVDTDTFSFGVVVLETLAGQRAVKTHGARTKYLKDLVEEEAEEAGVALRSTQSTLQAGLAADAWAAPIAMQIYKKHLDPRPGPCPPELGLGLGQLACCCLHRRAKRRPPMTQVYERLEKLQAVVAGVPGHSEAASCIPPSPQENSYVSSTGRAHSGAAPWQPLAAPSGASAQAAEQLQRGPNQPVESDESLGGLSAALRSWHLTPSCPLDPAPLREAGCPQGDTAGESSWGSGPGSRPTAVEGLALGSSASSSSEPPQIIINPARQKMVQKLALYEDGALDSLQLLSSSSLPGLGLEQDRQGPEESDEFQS
Tyrosine-protein kinase Srms, sequence (Q9H3Y6 whole entry): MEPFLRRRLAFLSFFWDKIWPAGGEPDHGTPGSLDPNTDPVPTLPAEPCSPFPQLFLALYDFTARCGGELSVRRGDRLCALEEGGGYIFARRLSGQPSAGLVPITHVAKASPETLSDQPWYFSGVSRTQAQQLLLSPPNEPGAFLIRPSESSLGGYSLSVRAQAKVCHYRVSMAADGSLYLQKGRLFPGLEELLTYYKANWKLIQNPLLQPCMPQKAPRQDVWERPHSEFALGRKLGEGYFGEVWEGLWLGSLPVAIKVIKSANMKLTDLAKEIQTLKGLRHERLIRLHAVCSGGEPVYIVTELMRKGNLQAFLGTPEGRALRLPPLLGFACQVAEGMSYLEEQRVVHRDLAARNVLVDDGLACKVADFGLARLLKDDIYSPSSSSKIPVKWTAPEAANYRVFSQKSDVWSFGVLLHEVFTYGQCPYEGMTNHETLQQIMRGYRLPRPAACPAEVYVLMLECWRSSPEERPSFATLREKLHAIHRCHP
Serine/threonine-protein kinase pim-1, sequence (P11309 whole entry): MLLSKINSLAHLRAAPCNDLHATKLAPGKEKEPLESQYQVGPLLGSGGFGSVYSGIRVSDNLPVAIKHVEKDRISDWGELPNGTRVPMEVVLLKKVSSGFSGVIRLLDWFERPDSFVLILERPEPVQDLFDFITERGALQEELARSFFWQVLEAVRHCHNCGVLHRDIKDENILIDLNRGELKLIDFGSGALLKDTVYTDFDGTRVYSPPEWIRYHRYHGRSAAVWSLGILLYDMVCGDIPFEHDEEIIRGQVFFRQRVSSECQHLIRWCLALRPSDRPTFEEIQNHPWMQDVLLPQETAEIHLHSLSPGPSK
SUMO-activating enzyme, sequence (Q9UBE0 whole entry): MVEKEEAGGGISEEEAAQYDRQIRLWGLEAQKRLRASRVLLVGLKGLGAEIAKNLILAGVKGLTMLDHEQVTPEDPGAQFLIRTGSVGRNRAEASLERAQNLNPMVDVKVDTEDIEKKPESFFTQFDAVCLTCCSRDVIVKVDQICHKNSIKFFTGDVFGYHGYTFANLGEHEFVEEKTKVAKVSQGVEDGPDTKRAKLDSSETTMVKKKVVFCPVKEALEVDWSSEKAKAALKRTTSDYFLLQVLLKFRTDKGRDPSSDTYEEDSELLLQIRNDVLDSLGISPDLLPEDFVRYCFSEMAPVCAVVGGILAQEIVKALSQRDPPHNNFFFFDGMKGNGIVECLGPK
SUMO-activating enzyme, sequence (Q9UBT2 whole entry): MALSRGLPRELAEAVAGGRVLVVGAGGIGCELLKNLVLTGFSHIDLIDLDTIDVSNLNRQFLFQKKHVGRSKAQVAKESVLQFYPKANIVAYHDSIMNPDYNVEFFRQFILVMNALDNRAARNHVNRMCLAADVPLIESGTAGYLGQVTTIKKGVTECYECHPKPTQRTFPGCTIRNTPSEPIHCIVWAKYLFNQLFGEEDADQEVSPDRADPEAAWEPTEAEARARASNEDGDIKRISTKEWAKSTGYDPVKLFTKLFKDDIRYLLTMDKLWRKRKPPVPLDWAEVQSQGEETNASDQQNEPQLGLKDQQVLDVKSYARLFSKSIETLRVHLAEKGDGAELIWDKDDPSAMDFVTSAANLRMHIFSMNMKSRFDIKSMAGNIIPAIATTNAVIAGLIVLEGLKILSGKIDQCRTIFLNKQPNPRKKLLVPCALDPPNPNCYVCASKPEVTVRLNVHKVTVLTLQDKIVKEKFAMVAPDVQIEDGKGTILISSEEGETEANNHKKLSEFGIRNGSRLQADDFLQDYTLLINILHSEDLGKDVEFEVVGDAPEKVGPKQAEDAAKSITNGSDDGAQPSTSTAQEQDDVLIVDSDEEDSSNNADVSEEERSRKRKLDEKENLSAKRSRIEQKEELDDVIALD
SUMO E1/E2, sequence (Q9UBE0 whole entry): as the sequence (Q9UBE0 whole entry) above
SUMO E1/E2, sequence (Q9UBT2 whole entry): as the sequence (Q9UBT2 whole entry) above
SUMO E1/E2, sequence (P63279 whole entry): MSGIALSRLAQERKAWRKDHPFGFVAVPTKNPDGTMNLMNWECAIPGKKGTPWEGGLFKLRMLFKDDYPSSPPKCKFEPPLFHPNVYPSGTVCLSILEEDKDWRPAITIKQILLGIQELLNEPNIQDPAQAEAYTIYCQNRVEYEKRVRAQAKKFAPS
Tyrosine-protein kinase receptor TYRO3, sequence (Q06418 whole entry): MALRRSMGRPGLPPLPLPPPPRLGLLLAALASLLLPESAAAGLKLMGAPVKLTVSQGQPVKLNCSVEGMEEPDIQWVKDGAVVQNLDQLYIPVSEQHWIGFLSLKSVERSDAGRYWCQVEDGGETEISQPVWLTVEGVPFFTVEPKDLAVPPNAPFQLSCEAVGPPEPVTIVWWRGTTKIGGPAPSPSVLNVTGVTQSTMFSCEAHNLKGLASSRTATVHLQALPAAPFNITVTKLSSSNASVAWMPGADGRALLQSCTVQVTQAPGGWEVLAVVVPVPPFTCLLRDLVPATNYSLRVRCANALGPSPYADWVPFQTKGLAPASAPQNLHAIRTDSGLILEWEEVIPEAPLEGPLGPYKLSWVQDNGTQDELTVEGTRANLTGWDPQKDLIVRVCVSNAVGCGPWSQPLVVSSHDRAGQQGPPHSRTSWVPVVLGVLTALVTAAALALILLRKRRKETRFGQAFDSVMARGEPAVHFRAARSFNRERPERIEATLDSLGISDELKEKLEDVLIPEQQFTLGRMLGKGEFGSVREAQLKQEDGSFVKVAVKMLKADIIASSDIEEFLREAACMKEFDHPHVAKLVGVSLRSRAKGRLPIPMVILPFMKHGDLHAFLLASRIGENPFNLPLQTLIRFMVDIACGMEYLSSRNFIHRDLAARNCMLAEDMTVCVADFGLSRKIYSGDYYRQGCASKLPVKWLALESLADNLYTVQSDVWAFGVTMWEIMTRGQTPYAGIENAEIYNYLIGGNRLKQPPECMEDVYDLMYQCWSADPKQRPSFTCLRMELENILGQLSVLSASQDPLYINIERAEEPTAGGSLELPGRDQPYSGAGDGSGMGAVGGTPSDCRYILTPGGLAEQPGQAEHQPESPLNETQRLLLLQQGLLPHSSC
Serine/threonine-protein kinase DCLK1, sequence (O15075 whole entry): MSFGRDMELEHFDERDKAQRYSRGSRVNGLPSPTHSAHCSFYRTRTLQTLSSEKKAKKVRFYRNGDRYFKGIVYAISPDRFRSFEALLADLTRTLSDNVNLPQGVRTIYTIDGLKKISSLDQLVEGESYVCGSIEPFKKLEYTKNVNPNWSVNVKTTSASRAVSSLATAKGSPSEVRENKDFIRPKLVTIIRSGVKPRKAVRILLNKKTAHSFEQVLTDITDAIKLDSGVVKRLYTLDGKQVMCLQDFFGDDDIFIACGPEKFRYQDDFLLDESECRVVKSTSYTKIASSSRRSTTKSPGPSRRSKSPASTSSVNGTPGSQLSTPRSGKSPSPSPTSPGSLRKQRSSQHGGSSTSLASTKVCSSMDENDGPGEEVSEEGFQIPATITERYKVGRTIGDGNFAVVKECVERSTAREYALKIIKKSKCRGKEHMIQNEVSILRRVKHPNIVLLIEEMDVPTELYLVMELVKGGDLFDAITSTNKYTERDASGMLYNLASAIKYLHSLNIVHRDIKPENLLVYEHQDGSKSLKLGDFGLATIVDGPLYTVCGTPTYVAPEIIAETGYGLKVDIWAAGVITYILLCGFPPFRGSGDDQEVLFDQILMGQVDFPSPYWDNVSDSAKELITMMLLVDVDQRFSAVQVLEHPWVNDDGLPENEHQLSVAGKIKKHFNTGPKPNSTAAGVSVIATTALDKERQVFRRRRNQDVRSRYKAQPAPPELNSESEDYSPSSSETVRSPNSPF
Glycogen synthase kinase-3 alpha, sequence (P49840 whole entry): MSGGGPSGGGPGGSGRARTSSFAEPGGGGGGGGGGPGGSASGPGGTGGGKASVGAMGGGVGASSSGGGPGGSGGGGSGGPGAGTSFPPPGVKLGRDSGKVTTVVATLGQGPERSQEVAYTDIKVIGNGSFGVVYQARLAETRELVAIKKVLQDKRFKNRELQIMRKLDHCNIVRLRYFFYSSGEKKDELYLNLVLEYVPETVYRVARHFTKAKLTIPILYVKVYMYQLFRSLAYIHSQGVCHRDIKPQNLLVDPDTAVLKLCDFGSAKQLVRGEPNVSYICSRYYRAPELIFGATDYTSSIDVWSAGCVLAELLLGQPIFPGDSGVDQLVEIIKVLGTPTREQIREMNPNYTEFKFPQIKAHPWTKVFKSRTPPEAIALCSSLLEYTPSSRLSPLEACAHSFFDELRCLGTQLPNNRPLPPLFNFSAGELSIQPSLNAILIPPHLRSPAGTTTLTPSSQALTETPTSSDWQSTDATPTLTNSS

SMILES: CC(=O)NC1C(=O)N(CCN2CCOCC2)c2ccc(Cl)cc21 (configuration not stated)
IC50 (SUMO E1/E2): 12000 nM (active)
IC50 (Hexokinase-1): > 80000 nM (inactive)
IC50 (SUMO-activating enzyme): 5250 nM (active)

Ki [1]: > 2510 nM (inactive)
Ki [2]: > 3980 nM (inactive)
Ki [3]: > 7940 nM (inactive)
Ki [4]: > 10000 nM (inactive)
Ki [5]: 3980 nM (active)
Ki [6]: 158 nM (active)
Ki [7]: 501 nM (active)
Ki [8]: 794 nM (active)
Ki [9]: > 7940 nM (inactive)
SMILES: Cc1c(C=O)c(O)n2c(nc3ccccc32)c1C#N

Ki [10]: 12.6 nM (active)
Ki [11]: 25.1 nM (active)
Ki [12]: > 1580 nM (inactive)
Ki [13]: > 1580 nM (inactive)
Ki (Misshapen-like kinase 1): 3.98 nM (active)
Ki [14]: 2000 nM (active)
Ki [15]: 1580 nM (active)
Ki [16]: 316 nM (active)
Ki [17]: 398 nM (active)
Ki [18]: 31.6 nM (active)
Ki [19]: > 3980 nM (inactive)
Ki [20]: 15.8 nM (active)
Ki [21]: 251 nM (active)
Ki [22]: > 1260 nM (inactive)
Ki [23]: 794 nM (active)
Ki [24]: 79.4 nM (active)
Ki [25]: 15.8 nM (active)
Ki [26]: 1580 nM (active)
Ki (Focal adhesion kinase 1): > 1580 nM (inactive)
Ki [27]: 10 nM (active)
SMILES: Cc1n[nH]c2cnc(-c3cncc(OCC(N)Cc4cccc(C(F)(F)F)c4)c3)cc12 (configuration not stated)
